Tests used:
Format in all cases: in vivo, male rats of Wistar strain
[1] = test system: stomach mucous membrane (ulcer); test: Formation of stomach ulcer by Indometacin-albumin composition; conditions: rat, fasted, oral, 20 mg/kg in terms of Indometacin, 7 hours
Description: It is known that while non-steroidal anti-inflammatory agents show a strong anti-inflammatory action to inflammation-affected parts, they cause hemorrhage and ulcer to the digestive system.
The test was conducted according to the method by Okabe et al. (J. Jap. Pharmacol. Vol. 29, 670 (1979)). That is, two groups of male rats of Wistar strain each weighing 180-200 g (one group consisted of 8 such rats) were fasted for about 18 hours. As test samples, there were used suspensions obtained by suspending the Indometacin-albumin composition (Indometacin 3 g albumin 30 g) obtained in Example 23 or 24 (described later) in a 1% carboxymethyl cellulose sodium solution (hereinafter referred to as 1% CMCNa) in an amount of 20 mg/kg in terms of Indometacin. These suspensions were orally administered to the rats at a proportion of 0.5 ml/100 g (rat). As a control sample, a suspension obtained by suspending an Indometacin powder in 1% CMCNa in an amount of 20 mg/kg was administered similarly. After 7 hours from the administration, all the rats were sacrificed under etherization. 8 ml of a 1% aqueous buffered formalin solution was injected into the stomach of each rat. […] Thereafter, the stomach was incised along the greater curvature and the lesioned portions (ulcer portions) generated in the mucous membrane were measured for their major axes (mm) under a stereoscopic microscope. […]

[2] = test system: carragheenin induced plantar edema; test: Anti-inflammatory action, carragheenin induced plantar edema method; conditions: rat, oral, 5 mg/kg in terms of Indometacin
Description: The anti-inflammatory action of the Indometacin-albumin composition can also be proven by the following test by carragheenin induced plantar edema method.
A wide-mouthed glass container filled with water was placed on an electronic even balance. Into the water was immersed the sole of the right hind leg of rat up to the borders of the hair, and the resulting weight increase was measured to obtain a volume of the sole.
Three groups of male rats of Wistar strain each weighing 150-180 g (one group consisted of 6 such rats) were fasted for 18 hours and then measured for their sole volumes. These volumes were each taken as a sole volume before administration.
As test samples, there were used two suspensions, i.e. a suspension obtained by suspending the Indometacin-egg albumin composition (Indometacin 3 g / egg albumin 30 g) obtained in Example 24 (described later) in 1% CMCNa in an amount of about 5 mg/kg in terms of Indometacin and a suspension obtained by suspending an Indometacin powder in 1% CMCNa in an amount of 5 mg/kg in terms of Indometacin. These suspensions were orally administered to two sample groups at a proportion of 0.5 ml/100 g (rat). At 30 minutes after the oral administration, 0.1 ml of a physiological saline solution containing 1% of λ-carragheenin was subcutaneously administered to each rat at the sole of right hind leg and, immediately, 5 ml of water was administered orally. In 1, 3 and 5 hours after the administration of the 1% λ-carragheenin solution, the sole volume of each rat was measured. Then, the swelling percent of each individual rat, the average swelling percent of each group and the corresponding inhibition ratio were calculated according to the following formulae.
As a control sample, there was used 1% CMCNa, and it was orally administered to one control group at a proportion of 0.5 ml/100 g (rat). The results were compared with those of the sample-administered groups.
Swelling percent (%)=((B-A).div.A)×100
Inhibition ratio (%)=((C-D).div.C)×100
A: Sole volume before administration
B: Sole volume after administration
C: Average swelling percent of control group
D: Average swelling percent of sample group

[3] = Absorption of nalidixic acid-albumin composition by gastrointestinal tract (oral, rat serum level)
Description: It was made clear from the following test that the nalidixic acid-albumin composition (nalidixic acid content: 8.9%) obtained according to the present invention improves the absorption of nalidixic acid administered after meals.
Male rats of Wistar strain each weighing about 290 g obtained from Sankyo Labo. were used under a satiety condition.
The administration amount was 50 mg/kg in terms of nalidixic acid. A composition was administered in a form of its suspension in 1 ml of water, using an oral sonde. About 0.2 ml of blood was drawn from the eyeground of rat using a capillary (Drummond, 0.1 ml) and then centrifuged to obtain a serum.
The serum was mixed with an equal volume of methanol to deproteinize the serum. The determination for the deproteinized serum was conducted according to high performance liquid chromatography.
Column: ODS-80TM manufactured by TOYO SODA, 4.6 mm×15 cm
Mobile phase: Acetonitrile: 50 mM citric acid solution: 1 M ammonium acetate =35 : 64 : 1
Detection wavelength: 258 nm
Column temperature: Room temperature
The calibration curve was obtained by adding known nalidixic acid to a blank serum and subjecting the mixture to the same procedure as for the sample.

Row | Structure (SMILES) | Incidence [1] [%] | Ulcer index (Mean ± S.E.) ([1]; total of major axes (mm) of ulcers) | Swelling percent, 1 hr ([2]; 1 hr after λ-carragheenin) [%] | Swelling percent, 3 hr ([2]; 3 hr after λ-carragheenin) [%] | Swelling percent, 5 hr ([2]; 5 hr after λ-carragheenin) [%] | Inhibition ratio, 1 hr ([2]; vs 1% CMCNa control, 1 hr after λ-carragheenin) [%] | Inhibition ratio, 3 hr ([2]; vs 1% CMCNa control, 3 hr after λ-carragheenin) [%] | Inhibition ratio, 5 hr ([2]; vs 1% CMCNa control, 5 hr after λ-carragheenin) [%] | AUC at 8 h ([3]; 50 mg/kg in terms of nalidixic acid, 0-8 hours, read-out: area below the blood concentration-time curve (AUC) between 0 and 8 hours) [ng·h/mL] | Tmax ([3]; 50 mg/kg in terms of nalidixic acid, satiety condition, read-out: time at which blood concentration of nalidixic acid reached the maximum) [h] | Cmax ([3]; same amount (50 mg/kg), satiety condition, read-out: maximum blood concentration of nalidixic acid (powder, unit printed as μg)) [ng/mL]
1 | COc1ccc2c(c1)c(CC(=O)O)c(C)n2C(=O)c1ccc(Cl)cc1 [Indometacin powder, Indometacin] | 100.0 | 341.7 ± 49.9 | 10.3 | 8.4 | 8.5 | 39.4 | 52.5 | 60.5 | – | – | –
2 | CCn1cc(C(=O)O)c(=O)c2ccc(C)nc21 [nalidixic acid powder, nalidixic acid] | – | – | – | – | – | – | – | – | 34600 | 3 | ~7000

Reference: patent publication US5051406A, “Pharmaceutical composition using albumin as a carrier and process for producing the same” (Nippon Hypox Laboratories Incorporated, priority 1987, dated 1991)
